The values below come from publication PMC11308363, “Bioinformatic, Enzymatic, and Structural Characterization of Trichuris suis Hexosaminidase HEX-2” (Biochemistry, 2024).

One data set addresses T1, T. suis HEX-2 (Trichuris suis, UniProt A0A085NCI8).
T1 construct: gene M514_07548; recombinant C-terminally His-tagged, secreted from Pichia; residues 85–620 (long) or 135–620 (short) of the predicted protein
Description: pNP-β-GalNAc hydrolysis assay with purified enzyme, Ki fitted in Prism. The data set is classed as biochemical.

Substrate in data set [1]: CC(=O)N[C@H]1[C@H](Oc2ccc([N+](=O)[O-])cc2)O[C@H](CO)[C@H](O)[C@@H]1O
Description: Michaelis–Menten kinetics, absorbance assay with purified enzyme (apparent Km). In kind it is biochemical, Trichuris suis.

A word on the Ki: it is the dissociation constant of the complex between target and ligand, obtained from inhibition or displacement. A high value points to lower affinity. GalNAc-isofagomine yielded a Ki at T. suis HEX-2 of 600 nM.

B1: T. suis HEX-2 (Trichuris suis) (protein)
chain: SNVFIPKRRIVHLDLKGAAPKPQHFRAFFEYFVRIGATGILIEWEDMFPYEGRLSDLRNGDAYSADDVRMILSTADQLRLEVIPLVQTIGHLEWLLKTHKFYSFRENPRNPQSVCVSNAEAVDLVLHLVDQVMAFHKDYGQFVHIGADEVYQYGECSRCVARMNKENLRREDLLLRHIVNVSKHVKTKYGKNVLMWHDMIANIDASLAEKYDLKNLVEPVLWNYAEDLEAFLPMGIWETFSAMVPYMWGSSAFKGADSPTRYHSNVKHYLENHISWIKQMSTASEKFREFRGLIFTGWQRYDHFAVLCEFLPIGIPSLTVNMLTIRNGRFDASVNDQAISIMQCVTGSDVKGDLYGCRFPGSDIYHHVQLLHEKKGEIEKLLLQQSVQGWLSNIAIDYNMSSPWYMNLIVPDLMTYKNQMIELSLNIRQAMLEMFYENAVDEFLFTYVDPVINHLQRLLDRATAIQRRDEFPVRPFPIKRTIDTTR
notes: recombinant C-terminally His-tagged, secreted from Pichia; residues 85–620 (long) or 135–620 (short) of the predicted protein
A word on the Km: it is the concentration of substrate that gives half-maximal velocity. As to B1, the Km in data set [1] stood at 900 µM.
